The source made the active and inactive calls. The rule behind the calls is not given here. Peptide text beside a SMILES is read from it.
What was measured:
Escherichia coli [1] = test: Binding affinity to cell surface of Escherichia coli KCTC 2223 at 10 uM incubated for 1 hr by ELISA; format: organism-based
Salmonella typhimurium [2] = test: Binding affinity to cell surface of Salmonella typhimurium KCTC 2370 at 10 uM incubated for 1 hr by ELISA; format: organism-based; conditions: Salmonella enterica subsp. enterica serovar Typhimurium
Staphylococcus aureus [3] = test: Binding affinity to cell surface of Staphylococcus aureus ATCC 15752 at 10 uM incubated for 1 hr by ELISA; format: organism-based
Candida albicans [4] = test: Binding affinity to cell surface of Candida albicans ATCC 10231 at 10 uM incubated for 1 hr by ELISA; format: organism-based
Pseudomonas aeruginosa [5] = test: Binding affinity to cell surface of Pseudomonas aeruginosa H103 at 10 uM incubated for 1 hr by ELISA; format: organism-based
[6] = target: T1, Outer membrane porin F (Pseudomonas aeruginosa (strain ATCC 15692 / DSM 22644 / CIP 104116 / JCM14847 / LMG 12228 / 1C / PRS 101 / PAO1)) (UniProt P13794); test: Binding affinity to OprF in Pseudomonas aeruginosa H103 at 10 uM incubated for 1 hr by ELISA
T1 sequence (whole entry): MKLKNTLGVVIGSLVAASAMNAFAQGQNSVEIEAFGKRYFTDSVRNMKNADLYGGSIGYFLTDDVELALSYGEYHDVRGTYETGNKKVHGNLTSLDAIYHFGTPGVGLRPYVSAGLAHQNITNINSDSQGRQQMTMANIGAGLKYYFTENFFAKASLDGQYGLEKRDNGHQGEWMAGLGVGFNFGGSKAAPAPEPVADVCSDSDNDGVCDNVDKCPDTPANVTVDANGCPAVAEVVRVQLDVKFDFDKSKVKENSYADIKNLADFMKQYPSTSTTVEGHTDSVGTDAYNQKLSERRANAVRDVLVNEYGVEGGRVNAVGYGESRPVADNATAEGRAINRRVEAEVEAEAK

[7] = system: Outer membrane porin F (Pseudomonas aeruginosa (strain ATCC 15692 / DSM 22644 / CIP 104116 / JCM14847 / LMG 12228 / 1C / PRS 101 / PAO1)), P13794 [UNDEFINED MUTATION]; test: Binding affinity to OprF mutant in Pseudomonas aeruginosa H636 at 10 uM incubated for 1 hr by ELISA
[8] = target: T1, Outer membrane porin F (Pseudomonas aeruginosa (strain ATCC 15692 / DSM 22644 / CIP 104116 / JCM14847 / LMG 12228 / 1C / PRS 101 / PAO1)); test: Binding affinity to recombinant Pseudomonas aeruginosa OprF expressed in Escherichia coli BL21 (DE3) at 10 uM incubated for 1 hr by ELISA
Pseudomonas aeruginosa [9] = test: Antibacterial activity against multidrug resistant Pseudomonas aeruginosa H103 infected in BALB/c mouse infected assessed as survival rate at 25 mg/kg, ip measured on day 7; format: functional; conditions: 168 h
[10] = target: T1, Outer membrane porin F (Pseudomonas aeruginosa (strain ATCC 15692 / DSM 22644 / CIP 104116 / JCM14847 / LMG 12228 / 1C / PRS 101 / PAO1)); test: Binding affinity to OprF in Pseudomonas aeruginosa H103 assessed as binding affinity to bacterial cell surface at 1 uM incubated for 5 mins by confocal laser scanning microscopy
Escherichia coli [11] = test: Binding affinity to cell surface of Escherichia coli KCTC 2223 at 1 uM incubated for 5 mins by confocal laser scanning microscopy; format: organism-based
Salmonella typhimurium [12] = test: Binding affinity to cell surface of Salmonella typhimurium KCTC 2370 at 1 uM incubated for 5 mins by confocal laser scanning microscopy; format: organism-based; conditions: Salmonella enterica subsp. enterica serovar Typhimurium
Pseudomonas aeruginosa [13] = test: Antibacterial activity against Pseudomonas aeruginosa assessed as reduction in bacterial cell growth preincubated for 3 hrs followed by medium replenishment further incubated for 18 hrs by serial microdilution method; format: functional
Escherichia coli [14] = test: Antibacterial activity against Escherichia coli KCTC 2223 assessed as reduction in bacterial cell growth preincubated for 3 hrs followed by medium replenishment further incubated for 18 hrs by serial microdilution method; format: functional
Salmonella typhimurium [15] = test: Antibacterial activity against Salmonella typhimurium KCTC 2370 assessed as reduction in bacterial cell growth preincubated for 3 hrs followed by medium replenishment further incubated for 18 hrs by serial microdilution method; format: functional, Salmonella enterica subsp. enterica serovar Typhimurium; conditions: Salmonella enterica
Staphylococcus aureus [16] = test: Antibacterial activity against Staphylococcus aureus ATCC 15752 assessed as reduction in bacterial cell growth preincubated for 3 hrs followed by medium replenishment further incubated for 18 hrs by serial microdilution method; format: functional
Candida albicans [17] = test: Antifungal activity against Candida albicans ATCC 10231 assessed as reduction in fungal cell growth preincubated for 3 hrs followed by medium replenishment further incubated for 18 hrs by serial microdilution method; format: functional
Pseudomonas aeruginosa [18] = test: Antibacterial activity against multidrug resistant Pseudomonas aeruginosa H103 infected in BALB/c mouse infected assessed as survival rate at 15 mg/kg, ip measured on day 7; format: functional; conditions: 168 h
[19] = system: Outer membrane porin F (Pseudomonas aeruginosa (strain ATCC 15692 / DSM 22644 / CIP 104116 / JCM14847 / LMG 12228 / 1C / PRS 101 / PAO1)), P13794 [UNDEFINED MUTATION]; test: Binding affinity to OprF mutant in Pseudomonas aeruginosa H636 at 1 uM incubated for 5 mins by confocal laser scanning microscopy
[20] = target: T1, Outer membrane porin F (Pseudomonas aeruginosa (strain ATCC 15692 / DSM 22644 / CIP 104116 / JCM14847 / LMG 12228 / 1C / PRS 101 / PAO1)); test: Binding affinity to OprF in Pseudomonas aeruginosa H103 assessed as binding affinity to bacterial cell surface at 10 uM incubated for 1 hr by ELISA
Pseudomonas aeruginosa [21] = test: Antibacterial activity against Pseudomonas aeruginosa assessed as reduction in bacterial cell growth in presence of GNU7 preincubated for 3 hrs followed by medium replenishment further incubated for 18 hrs by serial microdilution method; format: functional
Escherichia coli [22] = test: Antibacterial activity against Escherichia coli KCTC 2223 assessed as reduction in bacterial cell growth in presence of GNU7 preincubated for 3 hrs followed by medium replenishment further incubated for 18 hrs by serial microdilution method; format: functional
Salmonella typhimurium [23] = test: Antibacterial activity against Salmonella typhimurium KCTC 2370 assessed as reduction in bacterial cell growth in presence of GNU7 preincubated for 3 hrs followed by medium replenishment further incubated for 18 hrs by serial microdilution method; format: functional, Salmonella enterica subsp. enterica serovar Typhimurium; conditions: Salmonella enterica
Staphylococcus aureus [24] = test: Antibacterial activity against Staphylococcus aureus ATCC 15752 assessed as reduction in bacterial cell growth in presence of GNU7 preincubated for 3 hrs followed by medium replenishment further incubated for 18 hrs by serial microdilution method; format: functional
Candida albicans [25] = test: Antifungal activity against Candida albicans ATCC 10231 assessed as reduction in fungal cell growth in presence of GNU7 preincubated for 3 hrs followed by medium replenishment further incubated for 18 hrs by serial microdilution method; format: functional
Erythrocyte = test: Hemolytic activity in human RBC incubated for 30 mins; format: ADME, cell-based; conditions: 0.5 h
Pseudomonas aeruginosa [26] = test: Antibacterial activity against Pseudomonas aeruginosa H103 co-cultured with Escherichia coli KCTC 2223 assessed as reduction in bacterial load by measuring decrease in colony forming units at 2 uM incubated for 30 mins by time-kill assay; format: functional
Escherichia coli [27] = test: Antibacterial activity against Escherichia coli KCTC 2223 co-cultured with Pseudomonas aeruginosa H103 assessed as reduction in bacterial load by measuring decrease in colony forming units at 2 uM incubated for 30 mins by time-kill assay; format: functional
Pseudomonas aeruginosa [28] = test: Antibacterial activity against Pseudomonas aeruginosa H103 co-cultured with Salmonella typhimurium KCTC 2370 assessed as reduction in bacterial load by measuring decrease in colony forming units at 2 uM incubated for 30 mins by time-kill assay; format: functional
Salmonella typhimurium [29] = test: Antibacterial activity against Salmonella typhimurium KCTC 2370 co-cultured with Pseudomonas aeruginosa H103 assessed as reduction in bacterial load by measuring decrease in colony forming units at 2 uM incubated for 30 mins by time-kill assay; format: functional, organism-based; conditions: Salmonella enterica subsp. enterica serovar Typhimurium
Mus musculus [30] = test: In vivo antibacterial activity against multidrug resistant Pseudomonas aeruginosa H103 infected in BALB/c mouse assessed as reduction in bacterial load by measuring decrease in colony forming units in liver at 25 mg/kg, ip measured after 12 hrs; format: functional
Mus musculus [31] = test: In vivo antibacterial activity against multidrug resistant Pseudomonas aeruginosa H103 infected in BALB/c mouse assessed as reduction in bacterial load by measuring decrease in colony forming units in kidney at 25 mg/kg, ip measured after 12 hrs; format: functional
Mus musculus [32] = test: In vivo antibacterial activity against multidrug resistant Pseudomonas aeruginosa H103 infected in BALB/c mouse assessed as reduction in bacterial load by measuring decrease in colony forming units in spleen at 25 mg/kg, ip measured after 12 hrs; format: functional

`CC(C)C[C@H](NC(=O)[C@H](CO)NC(=O)[C@H](CO)NC(=O)[C@H](CS)NC(=O)[C@@H](N)CO)C(=O)N[C@H](C(=O)N[C@H](C(=O)N[C@@H](CC(C)C)C(=O)N[C@@H](CCCNC(=N)N)C(=O)N1CCC[C@H]1C(=O)N[C@@H](CS)C(=O)NCC(=O)O)[C@@H](C)O)[C@@H](C)O` (H-SCSSLTTLRPCG-OH) was tested. Which Activity (Escherichia coli [1]) did it give?
Its Activity is “Active”.

What about the Activity (Salmonella typhimurium [2]) of the same compound?
Its Activity is “Active”.

And the Activity (Staphylococcus aureus [3])?
Its Activity is “Active”.

What about the Activity (Candida albicans [4]) of the same compound?
Its Activity is “Active”.

And the Activity (Pseudomonas aeruginosa [5])?
Its Activity is “Active”.

What about the Activity [6] of the same compound?
The Activity was “Active”.

What about the Activity [7] of the same compound?
Its Activity is “Active”.

What about the Activity [8] of the same compound?
The Activity was “inactive”.

Which survival at 25 mg/kg (Pseudomonas aeruginosa [9]) does the source give for `C[C@@H](O)[C@H]1C(=O)N2C(C(=O)O)=C(S[C@@H]3CN[C@H](C(=O)N(C)C)C3)[C@H](C)[C@H]12` [MEROPENEM] here?
The survival at 25 mg/kg was 25%.

With H-RLLRPLLQLLKQKLR-OH as the compound, how does the Activity [10] read?
The Activity was “inactive”.

What about the Activity (Escherichia coli [11]) of the same compound?
The Activity was “inactive”.

What about the Activity (Salmonella typhimurium [12]) of the same compound?
The Activity was “inactive”.

What about the MIC (Pseudomonas aeruginosa [13]) of the same compound?
Its MIC is 32 µM.

What about the MIC (Escherichia coli [14]) of the same compound?
The MIC was 8 µM.

And the MIC (Salmonella typhimurium [15])?
The MIC was 16 µM.

What about the MIC (Staphylococcus aureus [16]) of the same compound?
The MIC was 4 µM.

What about the MIC (Candida albicans [17]) of the same compound?
The MIC was 16 µM.

What about the survival at 15 mg/kg (Pseudomonas aeruginosa [18]) of the same compound?
The survival at 15 mg/kg was 62.5%.

What about the Activity [19] of the same compound?
The Activity was “inactive”.

For H-SQRKLAAKLTSK-OH, which Activity [20] is on record?
Its Activity is “Active”.

What about the Activity (Escherichia coli [1]) of the same compound?
The Activity was “inactive”.

What about the Activity (Salmonella typhimurium [2]) of the same compound?
The Activity was “inactive”.

What about the Activity (Staphylococcus aureus [3]) of the same compound?
Its Activity is “inactive”.

What about the Activity (Candida albicans [4]) of the same compound?
The Activity was “inactive”.

And the Activity [10]?
The Activity was “Active”.

What about the Activity (Escherichia coli [11]) of the same compound?
The Activity was “inactive”.

What about the Activity (Salmonella typhimurium [12]) of the same compound?
Its Activity is “inactive”.

What about the Activity [6] of the same compound?
Its Activity is “Active”.

And the Activity [7]?
Its Activity is “inactive”.

And the Activity [8]?
The Activity was “Active”.

What about the MIC (Pseudomonas aeruginosa [13]) of the same compound?
The MIC was > 32 µM.

And the MIC (Escherichia coli [14])?
The MIC was > 32 µM.

And the MIC (Salmonella typhimurium [15])?
The MIC was > 32 µM.

And the MIC (Staphylococcus aureus [16])?
The MIC was > 32 µM.

And the MIC (Candida albicans [17])?
Its MIC is > 32 µM.

And the MIC (Pseudomonas aeruginosa [21])?
Its MIC is 32 µM.

And the MIC (Escherichia coli [22])?
The MIC was 8 µM.

What about the MIC (Salmonella typhimurium [23]) of the same compound?
The MIC was 16 µM.

What about the MIC (Staphylococcus aureus [24]) of the same compound?
Its MIC is 4 µM.

What about the MIC (Candida albicans [25]) of the same compound?
The MIC was 16 µM.

And the Activity [19]?
The Activity was “inactive”.

Which results are given for H-SQRKLAAKLTSKGGGRLLRPLLQLLKQKLR-OH?
Activity [10]: Active; Activity (Escherichia coli [11]): inactive; Activity (Salmonella typhimurium [12]): inactive; MIC (Pseudomonas aeruginosa [13]): 2 µM; MIC (Escherichia coli [14]): 1 µM; MIC (Salmonella typhimurium [15]): 2 µM; MIC (Staphylococcus aureus [16]): 2 µM; MIC (Candida albicans [17]): 8 µM; Activity (Erythrocyte): Non-Toxic; Activity (Pseudomonas aeruginosa [26]): 2.7 log10CFU; Activity (Escherichia coli [27]): 0.6 log10CFU; Activity (Pseudomonas aeruginosa [28]): 1.4 log10CFU; Activity (Salmonella typhimurium [29]): inactive; Activity (Mus musculus [30]): 3 log10CFU; Activity (Mus musculus [31]): 3.6 log10CFU; Activity (Mus musculus [32]): 2.8 log10CFU; survival at 25 mg/kg (Pseudomonas aeruginosa [9]): 100%; Activity [19]: inactive

Which Activity (Pseudomonas aeruginosa [5]) does the source give for H-VILTGPEAEYFW-OH here?
Its Activity is “inactive”.

— ChEMBL document CHEMBL4312012, “Development of a novel hybrid antimicrobial peptide for targeted killing of Pseudomonas aeruginosa” (Eur J Med Chem, 2020)
